The results in this text go back to ChEMBL document CHEMBL1743201, “Casarett and Doull's Toxicology The Basic Science of Poisons, 7th edition” (2008).

The target in data set [1] is T1, Cytochrome P450 2A6 (Homo sapiens, UniProt P11509).
T1 sequence (P11509 whole entry): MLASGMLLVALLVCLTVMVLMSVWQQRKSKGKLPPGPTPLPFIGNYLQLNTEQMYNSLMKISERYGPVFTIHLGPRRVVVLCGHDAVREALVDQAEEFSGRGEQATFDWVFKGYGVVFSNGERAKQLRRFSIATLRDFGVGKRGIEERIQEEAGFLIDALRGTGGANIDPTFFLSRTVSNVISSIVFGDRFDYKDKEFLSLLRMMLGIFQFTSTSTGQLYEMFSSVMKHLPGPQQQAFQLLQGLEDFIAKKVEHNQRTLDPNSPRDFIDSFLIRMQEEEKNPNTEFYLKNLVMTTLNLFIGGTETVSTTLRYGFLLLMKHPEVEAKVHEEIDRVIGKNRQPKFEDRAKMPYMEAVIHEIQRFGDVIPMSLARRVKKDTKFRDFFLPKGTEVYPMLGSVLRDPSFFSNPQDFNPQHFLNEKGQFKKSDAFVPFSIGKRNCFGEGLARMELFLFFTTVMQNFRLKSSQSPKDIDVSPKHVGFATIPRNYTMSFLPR
The data set is described as follows: Clinically relevant inhibitors of human liver microsomal P450 enzymes, isoform CYP2A6. The class given is ADME. To be noted: microsomes.

The target in data set [2] is T2, Cytochrome P450 2C8 (Homo sapiens, UniProt P10632).
T2 sequence (P10632 whole entry): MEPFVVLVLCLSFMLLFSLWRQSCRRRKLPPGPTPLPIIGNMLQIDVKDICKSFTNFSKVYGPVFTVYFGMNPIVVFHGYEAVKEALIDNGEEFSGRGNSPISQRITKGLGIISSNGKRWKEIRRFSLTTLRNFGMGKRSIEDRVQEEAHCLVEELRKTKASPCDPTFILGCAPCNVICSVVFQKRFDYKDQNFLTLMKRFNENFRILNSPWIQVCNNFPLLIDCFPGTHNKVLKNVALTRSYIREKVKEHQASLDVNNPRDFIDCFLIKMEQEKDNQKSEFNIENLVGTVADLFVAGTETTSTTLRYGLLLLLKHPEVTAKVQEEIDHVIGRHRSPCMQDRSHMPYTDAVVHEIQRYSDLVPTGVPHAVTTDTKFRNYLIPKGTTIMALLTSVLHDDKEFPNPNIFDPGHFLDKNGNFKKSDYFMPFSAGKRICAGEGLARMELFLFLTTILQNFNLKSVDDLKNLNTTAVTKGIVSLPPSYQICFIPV
The experiment in a line: Clinically relevant substrates of human liver microsomal P450 enzymes, isoform CYP2C8. The class given is ADME. To be noted: microsomes.

Data set [3] has as its target T3, Glutathione S-transferase A2 (Homo sapiens, UniProt P09210).
T3 sequence (P09210 whole entry): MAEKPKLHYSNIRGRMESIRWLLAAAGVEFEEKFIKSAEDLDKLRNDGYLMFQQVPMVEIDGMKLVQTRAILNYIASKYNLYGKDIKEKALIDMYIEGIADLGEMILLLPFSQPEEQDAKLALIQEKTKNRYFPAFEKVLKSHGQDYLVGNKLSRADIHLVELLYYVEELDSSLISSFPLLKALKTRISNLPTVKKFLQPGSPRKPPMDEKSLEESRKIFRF
The experiment in a line: Substrates for human cytosolic glutathione transferase GSTA2. The class given is ADME.

For data set [4], the target named is T4, Glutathione S-transferase kappa 1 (Homo sapiens, UniProt Q9Y2Q3).
T4 sequence (Q9Y2Q3 whole entry): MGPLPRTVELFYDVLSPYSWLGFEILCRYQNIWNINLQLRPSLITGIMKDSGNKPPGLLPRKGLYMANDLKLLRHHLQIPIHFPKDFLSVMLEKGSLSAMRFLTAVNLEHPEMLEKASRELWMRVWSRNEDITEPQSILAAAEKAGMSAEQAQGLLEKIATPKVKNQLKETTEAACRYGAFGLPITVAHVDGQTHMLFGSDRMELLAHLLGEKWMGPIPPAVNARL
The data set is described as follows: Substrates for human mitochondrial glutathione transferase GSTK1. The class given is ADME.

Data set [5] concerns the target Cytochrome P450 2E1 (Homo sapiens, UniProt P05181). The experiment in a line: Clinically relevant substrates of human liver microsomal P450 enzymes, isoform CYP2E1. The class given is ADME. The note with it: microsomes.
Data set [6] addresses T5, Maleylacetoacetate isomerase (Homo sapiens, UniProt O43708).
T5 sequence (O43708 whole entry): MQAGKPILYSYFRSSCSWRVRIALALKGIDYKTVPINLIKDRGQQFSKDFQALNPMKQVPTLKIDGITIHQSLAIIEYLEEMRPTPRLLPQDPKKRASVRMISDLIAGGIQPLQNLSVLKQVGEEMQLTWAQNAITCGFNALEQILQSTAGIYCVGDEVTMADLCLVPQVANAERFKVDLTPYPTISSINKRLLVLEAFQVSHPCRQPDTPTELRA
The experiment in a line: Substrates for human cytosolic glutathione transferase GSTZ1. The class given is ADME.

The target in data set [7] is T6, Nuclear receptor subfamily 1 group I member 3 (Mus musculus, UniProt O35627).
T6 sequence (O35627 whole entry): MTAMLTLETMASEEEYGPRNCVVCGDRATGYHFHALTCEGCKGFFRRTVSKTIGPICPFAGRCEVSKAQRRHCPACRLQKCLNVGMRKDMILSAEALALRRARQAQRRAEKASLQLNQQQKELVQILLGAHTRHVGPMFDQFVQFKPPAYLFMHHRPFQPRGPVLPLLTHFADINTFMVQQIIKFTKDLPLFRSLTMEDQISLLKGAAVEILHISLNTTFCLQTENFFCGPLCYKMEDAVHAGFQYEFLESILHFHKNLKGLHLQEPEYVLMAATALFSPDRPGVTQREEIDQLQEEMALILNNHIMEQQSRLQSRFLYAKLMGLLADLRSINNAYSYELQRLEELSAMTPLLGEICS
The data set is described as follows: Constitutive androstane receptor agonist.

The target in data set [8] is T7, Microsomal glutathione S-transferase 1 (Homo sapiens, UniProt P10620).
T7 sequence (P10620 whole entry): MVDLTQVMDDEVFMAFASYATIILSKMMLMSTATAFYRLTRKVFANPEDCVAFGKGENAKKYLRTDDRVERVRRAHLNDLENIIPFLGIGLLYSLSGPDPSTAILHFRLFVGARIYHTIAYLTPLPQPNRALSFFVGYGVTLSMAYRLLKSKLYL
The data set is described as follows: Substrates for human microsomal glutathione transferase MGST1. The class given is ADME.

The target of data set [9] is Microsomal glutathione S-transferase 2 (Homo sapiens, UniProt Q99735). The data set is described as follows: Substrates for human microsomal glutathione transferase MGST2. The class given is ADME.
Microsomal glutathione S-transferase 2, sequence (Q99735 whole entry): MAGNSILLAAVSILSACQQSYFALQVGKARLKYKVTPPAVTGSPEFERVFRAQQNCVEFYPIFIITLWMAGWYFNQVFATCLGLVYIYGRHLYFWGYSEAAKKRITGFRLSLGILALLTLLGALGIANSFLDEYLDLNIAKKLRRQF
Data set [10] concerns the target T8, UDP-glucuronosyltransferase 2B17 (Homo sapiens, UniProt O75795).
T8 sequence (O75795 whole entry): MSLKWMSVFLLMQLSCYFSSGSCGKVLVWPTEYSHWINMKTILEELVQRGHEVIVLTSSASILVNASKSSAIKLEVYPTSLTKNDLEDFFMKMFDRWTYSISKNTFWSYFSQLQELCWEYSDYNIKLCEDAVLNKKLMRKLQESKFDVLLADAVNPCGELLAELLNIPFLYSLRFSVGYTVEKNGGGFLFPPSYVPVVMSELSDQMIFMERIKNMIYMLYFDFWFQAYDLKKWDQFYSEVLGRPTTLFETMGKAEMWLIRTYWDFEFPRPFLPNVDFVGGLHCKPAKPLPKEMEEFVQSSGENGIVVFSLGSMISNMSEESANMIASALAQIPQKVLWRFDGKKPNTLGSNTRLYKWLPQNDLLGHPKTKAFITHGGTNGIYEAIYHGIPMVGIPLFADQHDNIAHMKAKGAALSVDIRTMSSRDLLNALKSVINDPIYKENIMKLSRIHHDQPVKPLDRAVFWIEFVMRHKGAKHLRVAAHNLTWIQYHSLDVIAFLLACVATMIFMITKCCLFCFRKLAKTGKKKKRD
The experiment in a line: Substrate of human UDP-glucuronosyltransferase UGT2B17. The class given is ADME.

For data set [11], the target named is T2, Cytochrome P450 2C8. The data set is described as follows: Clinically relevant inhibitors of human liver microsomal P450 enzymes, isoform CYP2C8. To be noted: microsomes. The class given is ADME.
Data set [12] concerns the target T9, UDP-glucuronosyltransferase 1A9 (Homo sapiens, UniProt O60656).
T9 sequence (O60656 whole entry): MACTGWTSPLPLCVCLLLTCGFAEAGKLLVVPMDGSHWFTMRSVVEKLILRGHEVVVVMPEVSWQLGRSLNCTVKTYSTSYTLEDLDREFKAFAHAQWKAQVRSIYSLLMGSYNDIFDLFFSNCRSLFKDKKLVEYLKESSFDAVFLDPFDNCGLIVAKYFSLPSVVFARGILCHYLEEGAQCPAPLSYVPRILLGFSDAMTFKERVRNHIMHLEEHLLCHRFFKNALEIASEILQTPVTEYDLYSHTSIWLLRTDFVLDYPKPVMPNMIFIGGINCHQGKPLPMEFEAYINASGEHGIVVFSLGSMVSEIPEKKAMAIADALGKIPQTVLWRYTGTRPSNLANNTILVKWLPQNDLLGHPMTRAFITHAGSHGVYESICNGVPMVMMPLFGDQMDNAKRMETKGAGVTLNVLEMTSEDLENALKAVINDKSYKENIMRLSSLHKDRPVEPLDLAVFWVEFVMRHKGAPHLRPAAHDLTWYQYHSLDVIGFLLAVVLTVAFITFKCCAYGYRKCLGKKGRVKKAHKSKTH
The data set is described as follows: Substrate of human UDP-glucuronosyltransferase UGT1A9. The class given is ADME.

The target in data set [13] is T10, Glutathione S-transferase Mu 2 (Homo sapiens, UniProt P28161).
T10 sequence (P28161 whole entry): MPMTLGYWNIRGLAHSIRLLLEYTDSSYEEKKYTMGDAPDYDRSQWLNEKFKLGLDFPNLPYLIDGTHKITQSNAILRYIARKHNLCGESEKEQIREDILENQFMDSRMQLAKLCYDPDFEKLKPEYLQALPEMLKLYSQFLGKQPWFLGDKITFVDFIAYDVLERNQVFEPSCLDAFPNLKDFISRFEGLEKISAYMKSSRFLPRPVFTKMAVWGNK
The data set is described as follows: Substrates for human cytosolic glutathione transferase GSTM2. The class given is ADME.

Data set [14] deals with Glutathione S-transferase P (Homo sapiens, UniProt P09211). The data set is described as follows: Substrates for human cytosolic glutathione transferase GSTP1. The class given is ADME.
Glutathione S-transferase P, sequence (P09211 whole entry): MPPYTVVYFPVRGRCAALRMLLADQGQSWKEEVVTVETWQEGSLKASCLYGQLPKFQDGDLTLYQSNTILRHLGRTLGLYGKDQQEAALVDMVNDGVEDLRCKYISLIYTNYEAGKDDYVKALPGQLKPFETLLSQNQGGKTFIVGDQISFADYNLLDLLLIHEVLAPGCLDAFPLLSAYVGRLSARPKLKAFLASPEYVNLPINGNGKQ
In data set [15] the target is T11, Glutathione S-transferase A4 (Homo sapiens, UniProt O15217).
T11 sequence (O15217 whole entry): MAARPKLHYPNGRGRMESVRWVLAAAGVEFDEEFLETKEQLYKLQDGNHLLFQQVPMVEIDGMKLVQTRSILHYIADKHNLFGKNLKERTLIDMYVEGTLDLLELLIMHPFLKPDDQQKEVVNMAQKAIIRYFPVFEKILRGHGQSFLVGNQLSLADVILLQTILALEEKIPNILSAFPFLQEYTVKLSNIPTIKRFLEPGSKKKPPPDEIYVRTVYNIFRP
The data set is described as follows: Substrates for human cytosolic glutathione transferase GSTA4. The class given is ADME.

Cytochrome P450 2E1, sequence (P05181 whole entry, canonical isoform): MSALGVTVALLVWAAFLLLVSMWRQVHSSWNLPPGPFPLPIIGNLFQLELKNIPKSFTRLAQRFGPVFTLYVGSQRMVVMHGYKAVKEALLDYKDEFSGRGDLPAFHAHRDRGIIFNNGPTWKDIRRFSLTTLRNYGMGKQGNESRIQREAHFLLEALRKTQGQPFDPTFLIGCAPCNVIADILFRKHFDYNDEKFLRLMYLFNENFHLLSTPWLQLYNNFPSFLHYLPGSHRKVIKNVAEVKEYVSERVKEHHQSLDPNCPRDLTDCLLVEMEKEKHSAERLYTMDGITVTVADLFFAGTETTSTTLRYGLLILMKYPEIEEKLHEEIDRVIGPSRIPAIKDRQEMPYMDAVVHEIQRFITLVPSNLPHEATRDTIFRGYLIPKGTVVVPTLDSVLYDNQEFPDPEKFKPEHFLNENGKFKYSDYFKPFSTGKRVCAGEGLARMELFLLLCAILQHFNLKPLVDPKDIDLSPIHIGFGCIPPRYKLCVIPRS

As for `CC[C@@H]1C(=O)OC[C@@H]1Cc1cncn1C` [PILOCARPINE], in [1], the Activity result is given as “Inhibitor”. With `CC(=O)O[C@H]1C(=O)[C@@]2(C)[C@H]([C@H](OC(=O)c3ccccc3)[C@]3(O)C[C@H](OC(=O)[C@H](O)[C@@H](NC(=O)c4ccccc4)c4ccccc4)C(C)=C1C3(C)C)[C@]1(OC(C)=O)CO[C@@H]1C[C@@H]2O` [PACLITAXEL], the Activity result in [2] is on record as “Substrate”.

For `O=[N+]([O-])c1ccc(Cl)c2nonc12`, in [3], the Activity result was “Substrate”. With `CCCCC/C=C\C/C=C\C/C=C\C=C\CCCCC(=O)O`, the Activity result in data set [4] is reported as “Substrate”.

Turning to `CCCCC[C@@H](/C=C/C=C\C/C=C\C/C=C\CCCC(=O)O)OO`, in [4], the Activity result is “Substrate”. In the case of `CCCCCCCCCCCC(=O)O` [DODECANOATE], in [5], the Activity entry is “Substrate”. With `O=C(O)/C=C\C(=O)CC(=O)CC(=O)O` [MALEYLACETOACETATE], the Activity result in data set [6] is “Substrate”. Regarding `O=C(O)C(Cl)Cl` [DICHLOROACETIC ACID], the Activity result in data set [6] is on record as “Substrate”. In the case of `Clc1ccccc1C(c1ccccc1)(c1ccccc1)n1ccnc1` [CLOTRIMAZOLE], in data set [7], the Activity entry is listed as “agonist”. For `ClC(Cl)=C(Cl)C(Cl)=C(Cl)Cl` [HEXACHLOROBUTADIENE], in data set [8], the Activity entry is “Substrate”. For `CCCCC/C=C\C/C=C\C/C=C\C=C\[C@H](CCCC(=O)O)OO`, in [9], the Activity entry is recorded as “Substrate”. In the case of `C=CCc1ccc(O)c(OC)c1` [EUGENOL], the Activity entry in [10] is listed as “Substrate”. Regarding `CN(CCOc1ccc(CC2SC(=O)NC2=O)cc1)c1ccccn1` (configuration not stated) [ROSIGLITAZONE], the values for the Activity result in data set [2] and in data set [11] were “Substrate” and “Inhibitor”, respectively. Consider `CCOc1cc(CC(=O)N[C@@H](CC(C)C)c2ccccc2N2CCCCC2)ccc1C(=O)O` [REPAGLINIDE], for which the Activity entry in [2] was “Substrate”.

Turning to `NCCc1c[nH]c2ccccc12` [TRYPTAMINE], the Activity result in [1] was “Inhibitor”.

On to `CC(Cl)C(=O)O` (configuration not stated), for which the Activity result in data set [6] is “Substrate”.

On to `O=C(O)CF` [FLUOROACETATE], for which the Activity result in data set [6] was “Substrate”. With `O=c1c(O)c(-c2ccccc2)oc2cc(O)cc(O)c12` [GALANGIN], the Activity entry in data set [10] is on record as “Substrate”. `Nc1ccccc1` [ANILINE]: the Activity result in data set [5] was “Substrate”.

Take `COc1cc2ccc(=O)oc2cc1O` [SCOPOLETIN]: the Activity entry in [12] and in data set [10] was “Substrate” in each case. As for `C/C=C/C(=O)OCC1=CCCCC1=O`, the Activity entry in [13], in data set [14] and in data set [15] was “Substrate” throughout. As to `N[C@@H]1C[C@H]1c1ccccc1.N[C@H]1C[C@@H]1c1ccccc1` [TRANYLCYPROMINE], the Activity result in [1] is “Inhibitor”. `COCc1c(C(C)C)nc(C(C)C)c(/C=C/[C@@H](O)C[C@@H](O)CC(=O)O)c1-c1ccc(F)cc1` [CERIVASTATIN]: the Activity result in [2] was “Substrate”.
